Entries after “also recorded” stand apart in the source; their conditions may differ.
How the values were obtained:
Cytochrome P450 1A2 [1] = target: T1, Cytochrome P450 1A2 (Homo sapiens, UniProt P05177); assay: (§1) Mechanism based inhibition of human cytochrome P450 1A2 measured by phenacetin O-deethylation (POD); type: ADME
T1 sequence (P05177 whole entry): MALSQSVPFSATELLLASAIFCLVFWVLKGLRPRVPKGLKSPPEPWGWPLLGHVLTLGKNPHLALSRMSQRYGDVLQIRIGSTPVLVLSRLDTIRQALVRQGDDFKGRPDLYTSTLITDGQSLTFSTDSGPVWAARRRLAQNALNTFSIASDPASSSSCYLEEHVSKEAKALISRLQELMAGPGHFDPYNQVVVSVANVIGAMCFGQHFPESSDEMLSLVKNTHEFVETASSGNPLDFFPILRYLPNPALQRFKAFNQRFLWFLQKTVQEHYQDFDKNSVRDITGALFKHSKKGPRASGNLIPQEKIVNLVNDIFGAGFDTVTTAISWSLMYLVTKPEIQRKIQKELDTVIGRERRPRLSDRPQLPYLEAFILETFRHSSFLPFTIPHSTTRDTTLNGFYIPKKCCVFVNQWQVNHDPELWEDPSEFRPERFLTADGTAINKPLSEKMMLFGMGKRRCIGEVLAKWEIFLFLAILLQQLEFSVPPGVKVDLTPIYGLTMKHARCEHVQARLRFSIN

CYP1A2 [2] = target: T2, CYP1A2 (Homo sapiens, UniProt P05177); assay: as §1; type: ADME; conditions: human, probe phenacetin (O-deethylation, POD)
T2 sequence (P05177 whole entry): T1 sequence (P05177 whole entry)

Cytochrome P450 1A1 [3] = target: T3, Cytochrome P450 1A1 (Rattus norvegicus, UniProt P00185); assay: (§2) Mechanism based inhibition of rat cytochrome P450 CYP1A1 measured by 7-ethoxyresorufin O-deethylation (EROD); type: ADME
T3 sequence (P00185 whole entry): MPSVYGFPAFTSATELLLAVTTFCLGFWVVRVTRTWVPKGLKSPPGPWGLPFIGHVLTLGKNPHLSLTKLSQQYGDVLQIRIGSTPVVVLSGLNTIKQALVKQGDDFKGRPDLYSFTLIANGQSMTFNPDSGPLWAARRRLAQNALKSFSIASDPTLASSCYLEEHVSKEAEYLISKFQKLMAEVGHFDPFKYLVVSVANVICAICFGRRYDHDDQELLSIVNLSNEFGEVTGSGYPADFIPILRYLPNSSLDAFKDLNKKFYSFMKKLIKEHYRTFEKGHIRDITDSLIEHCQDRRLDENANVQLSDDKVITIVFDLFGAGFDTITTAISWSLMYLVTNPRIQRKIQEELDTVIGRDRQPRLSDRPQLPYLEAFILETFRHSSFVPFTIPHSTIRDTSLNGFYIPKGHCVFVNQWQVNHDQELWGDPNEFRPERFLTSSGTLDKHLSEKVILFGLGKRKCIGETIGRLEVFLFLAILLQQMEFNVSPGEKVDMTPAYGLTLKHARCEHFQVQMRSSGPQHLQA

CYP1A1 = target: T4, CYP1A1 (Rattus norvegicus, UniProt P00185); assay: as §2; type: ADME; conditions: rat, probe 7-ethoxyresorufin (O-deethylation, EROD)
T4 sequence (P00185 whole entry): T3 sequence (P00185 whole entry)

CYP1A2 [4] = target: T5, CYP1A2 (Rattus norvegicus, UniProt P04799); assay: (§3) Mechanism based inhibition of rat cytochrome P450 CYP1A2 measured by 7-methoxyresorufin O-demethylation (MROD); type: ADME; conditions: rat, probe 7-methoxyresorufin (O-demethylation, MROD)
T5 sequence (P04799 whole entry): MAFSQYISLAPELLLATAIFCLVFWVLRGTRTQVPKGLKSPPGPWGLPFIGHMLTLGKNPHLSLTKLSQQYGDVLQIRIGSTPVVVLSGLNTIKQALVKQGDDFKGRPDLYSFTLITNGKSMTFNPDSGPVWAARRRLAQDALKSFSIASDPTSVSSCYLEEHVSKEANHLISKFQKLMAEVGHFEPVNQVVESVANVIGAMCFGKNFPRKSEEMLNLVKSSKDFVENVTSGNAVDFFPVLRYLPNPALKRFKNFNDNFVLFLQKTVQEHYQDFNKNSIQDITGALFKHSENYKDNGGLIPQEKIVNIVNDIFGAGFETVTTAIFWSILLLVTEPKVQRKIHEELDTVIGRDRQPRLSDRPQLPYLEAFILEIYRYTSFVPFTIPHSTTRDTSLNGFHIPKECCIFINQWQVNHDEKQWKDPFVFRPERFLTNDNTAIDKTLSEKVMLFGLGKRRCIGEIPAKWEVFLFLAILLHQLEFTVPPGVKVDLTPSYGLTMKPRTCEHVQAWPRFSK

Cytochrome P450 1A2 [5] = target: T6, Cytochrome P450 1A2 (Rattus norvegicus, UniProt P04799); assay: as §3; type: ADME
T6 sequence (P04799 whole entry): T5 sequence (P04799 whole entry)

Cytochrome P450 2E1 = Cytochrome P450 2E1 (Rattus norvegicus, UniProt P05182); assay: Mechanism based inhibition of rat cytochrome P450 CYP2E1; type: ADME
Cytochrome P450 1B1 = target: T7, Cytochrome P450 1B1 (Homo sapiens, UniProt Q16678); assay: Mechanism based inhibition of human cytochrome P450 1B1 measured by 7-ethoxyresorufin O-deethylation (EROD); type: ADME
T7 sequence (Q16678 whole entry): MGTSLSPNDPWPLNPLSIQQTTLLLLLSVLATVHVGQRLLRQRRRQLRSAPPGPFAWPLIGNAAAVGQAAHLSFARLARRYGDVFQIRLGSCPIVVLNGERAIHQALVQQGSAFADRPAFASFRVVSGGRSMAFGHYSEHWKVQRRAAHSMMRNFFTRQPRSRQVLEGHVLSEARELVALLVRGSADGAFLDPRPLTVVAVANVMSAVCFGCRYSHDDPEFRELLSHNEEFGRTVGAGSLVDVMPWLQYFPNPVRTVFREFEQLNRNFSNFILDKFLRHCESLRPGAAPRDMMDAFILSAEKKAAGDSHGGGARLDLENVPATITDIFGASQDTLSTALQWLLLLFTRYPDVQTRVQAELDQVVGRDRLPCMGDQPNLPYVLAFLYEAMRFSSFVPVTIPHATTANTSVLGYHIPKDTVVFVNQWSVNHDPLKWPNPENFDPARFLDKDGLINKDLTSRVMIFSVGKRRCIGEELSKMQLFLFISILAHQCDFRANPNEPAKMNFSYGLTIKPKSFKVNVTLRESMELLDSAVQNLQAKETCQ

Cytochrome P450 1A1 [6] = target: T8, Cytochrome P450 1A1 (Homo sapiens, UniProt P04798); assay: Mechanism based inhibition of human cytochrome P450 1A1 measured by 7-ethoxyresorufin O-deethylation (EROD); type: ADME
T8 sequence (P04798 whole entry): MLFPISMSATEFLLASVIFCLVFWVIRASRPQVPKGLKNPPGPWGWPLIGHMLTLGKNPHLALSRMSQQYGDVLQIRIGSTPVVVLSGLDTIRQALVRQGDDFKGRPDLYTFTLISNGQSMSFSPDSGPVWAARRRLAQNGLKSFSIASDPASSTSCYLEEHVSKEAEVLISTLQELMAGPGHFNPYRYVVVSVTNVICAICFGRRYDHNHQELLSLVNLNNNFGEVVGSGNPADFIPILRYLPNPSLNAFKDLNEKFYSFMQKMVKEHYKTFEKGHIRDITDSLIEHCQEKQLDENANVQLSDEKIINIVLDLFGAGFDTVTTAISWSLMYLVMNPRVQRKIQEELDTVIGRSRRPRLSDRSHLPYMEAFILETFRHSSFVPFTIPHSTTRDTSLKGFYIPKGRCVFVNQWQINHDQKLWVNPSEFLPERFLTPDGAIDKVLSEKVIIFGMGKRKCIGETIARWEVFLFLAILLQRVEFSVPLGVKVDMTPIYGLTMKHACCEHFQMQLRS

CYP2B6 = target: T9, CYP2B6 (Homo sapiens, UniProt P20813); assay: (§4) Mechanism based inhibition of human cytochrome P450 2B6; type: ADME; conditions: human
T9 sequence (P20813 whole entry): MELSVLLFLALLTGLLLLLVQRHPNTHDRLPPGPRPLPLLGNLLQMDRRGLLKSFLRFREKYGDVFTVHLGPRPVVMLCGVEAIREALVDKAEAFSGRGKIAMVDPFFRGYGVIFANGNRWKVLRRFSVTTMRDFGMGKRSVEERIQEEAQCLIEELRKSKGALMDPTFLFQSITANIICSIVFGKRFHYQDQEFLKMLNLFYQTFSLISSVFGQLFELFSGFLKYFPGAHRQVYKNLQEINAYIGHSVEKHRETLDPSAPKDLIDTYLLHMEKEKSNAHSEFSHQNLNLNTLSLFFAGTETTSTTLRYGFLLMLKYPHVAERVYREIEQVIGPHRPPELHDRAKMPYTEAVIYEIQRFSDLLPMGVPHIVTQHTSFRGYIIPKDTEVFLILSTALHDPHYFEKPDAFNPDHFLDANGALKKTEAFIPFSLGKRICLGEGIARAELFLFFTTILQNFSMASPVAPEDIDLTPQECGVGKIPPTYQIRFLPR

Cytochrome P450 2B6 = target: T10, Cytochrome P450 2B6 (Homo sapiens, UniProt P20813); assay: as §4; type: ADME
T10 sequence (P20813 whole entry): T9 sequence (P20813 whole entry)

Cytochrome P450 2B1 = target: T11, Cytochrome P450 2B1 (Rattus norvegicus, UniProt P00176); assay: Mechanism based inhibition of rat cytochrome P450 CYP2B1 measured by 7-EFC O-deethylation activity; type: ADME; conditions: rat
T11 sequence (P00176 whole entry): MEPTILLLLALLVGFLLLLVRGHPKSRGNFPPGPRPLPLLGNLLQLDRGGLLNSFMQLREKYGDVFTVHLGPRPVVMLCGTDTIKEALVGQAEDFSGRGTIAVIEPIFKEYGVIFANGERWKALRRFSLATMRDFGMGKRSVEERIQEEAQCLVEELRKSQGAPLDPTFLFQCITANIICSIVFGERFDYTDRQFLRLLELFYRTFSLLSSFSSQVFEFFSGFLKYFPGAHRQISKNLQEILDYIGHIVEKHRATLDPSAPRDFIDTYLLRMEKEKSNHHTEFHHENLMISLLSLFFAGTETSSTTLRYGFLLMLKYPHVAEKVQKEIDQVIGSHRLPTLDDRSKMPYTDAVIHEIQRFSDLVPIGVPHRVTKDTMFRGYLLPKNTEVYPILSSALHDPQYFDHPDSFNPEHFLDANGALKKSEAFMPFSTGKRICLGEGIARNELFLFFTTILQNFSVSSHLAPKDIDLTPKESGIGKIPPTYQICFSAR

CYP2C8 = target: T12, CYP2C8 (Homo sapiens, UniProt P10632); assay: in vitro; conditions: recombinant CYP2C8, probe paclitaxel
T12 sequence (P10632 whole entry): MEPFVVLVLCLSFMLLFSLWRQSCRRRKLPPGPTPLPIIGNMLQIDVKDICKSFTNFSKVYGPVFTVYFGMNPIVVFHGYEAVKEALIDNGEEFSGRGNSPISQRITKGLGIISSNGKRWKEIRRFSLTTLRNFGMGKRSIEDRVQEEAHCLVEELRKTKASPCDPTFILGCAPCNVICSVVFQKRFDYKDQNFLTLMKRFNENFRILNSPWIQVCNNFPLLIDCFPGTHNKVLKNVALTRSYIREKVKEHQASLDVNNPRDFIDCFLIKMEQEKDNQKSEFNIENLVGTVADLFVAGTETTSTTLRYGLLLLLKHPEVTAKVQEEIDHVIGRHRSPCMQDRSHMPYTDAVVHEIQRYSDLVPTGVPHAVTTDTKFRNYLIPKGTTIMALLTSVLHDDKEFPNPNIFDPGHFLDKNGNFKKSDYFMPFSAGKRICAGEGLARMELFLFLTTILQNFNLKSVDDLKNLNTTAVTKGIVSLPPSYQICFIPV
Description: (§5) Mechanism based inhibition of human cytochrome P450 2C8 measured by paclitaxel hydroxylation using a recombinant system

Cytochrome P450 2C8 = target: T13, Cytochrome P450 2C8 (Homo sapiens, UniProt P10632)
T13 sequence (P10632 whole entry): T12 sequence (P10632 whole entry)
Description: as §5

Cytochrome P450 2C11 = target: T14, Cytochrome P450 2C11 (Rattus norvegicus, UniProt P08683); assay: Mechanism based inhibition of rat cytochrome P450 CYP2C11 measured by 2-alpha and 16-alpha hydroxylation of testosterone; type: ADME
T14 sequence (P08683 whole entry): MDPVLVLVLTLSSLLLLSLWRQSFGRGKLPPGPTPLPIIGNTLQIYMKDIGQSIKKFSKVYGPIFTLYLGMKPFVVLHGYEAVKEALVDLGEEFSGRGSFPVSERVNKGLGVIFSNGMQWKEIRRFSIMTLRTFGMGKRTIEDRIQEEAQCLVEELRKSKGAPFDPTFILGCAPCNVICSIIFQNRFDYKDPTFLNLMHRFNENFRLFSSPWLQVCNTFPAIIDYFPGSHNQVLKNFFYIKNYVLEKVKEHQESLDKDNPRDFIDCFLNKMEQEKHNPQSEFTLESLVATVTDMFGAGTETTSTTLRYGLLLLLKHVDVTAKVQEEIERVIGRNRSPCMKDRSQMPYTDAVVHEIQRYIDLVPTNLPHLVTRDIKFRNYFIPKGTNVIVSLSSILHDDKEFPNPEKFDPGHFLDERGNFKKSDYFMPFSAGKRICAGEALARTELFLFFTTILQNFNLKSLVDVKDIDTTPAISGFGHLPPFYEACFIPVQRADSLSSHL

Chain of Cytochrome P450 2E1 (P05182 whole entry): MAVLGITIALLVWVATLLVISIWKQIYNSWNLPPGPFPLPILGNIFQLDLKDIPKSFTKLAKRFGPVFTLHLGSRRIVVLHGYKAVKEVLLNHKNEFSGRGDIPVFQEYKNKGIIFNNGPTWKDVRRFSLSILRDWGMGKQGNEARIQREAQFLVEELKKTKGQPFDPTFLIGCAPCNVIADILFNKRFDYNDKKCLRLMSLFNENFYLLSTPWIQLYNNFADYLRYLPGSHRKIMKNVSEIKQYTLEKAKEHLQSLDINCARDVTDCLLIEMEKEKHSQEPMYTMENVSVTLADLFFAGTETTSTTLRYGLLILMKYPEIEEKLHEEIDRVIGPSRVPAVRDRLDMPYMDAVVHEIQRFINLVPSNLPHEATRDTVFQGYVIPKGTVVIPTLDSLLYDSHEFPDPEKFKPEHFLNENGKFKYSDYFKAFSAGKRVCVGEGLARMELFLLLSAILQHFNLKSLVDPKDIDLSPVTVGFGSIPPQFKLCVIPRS

With `C[C@H](c1cc2ccccc2s1)N(O)C(N)=O` the Ki (Cytochrome P450 1A2 [1]) was 66 µM and the kinact (CYP1A2 [2]) was 0.0002 s⁻¹.
For `C#Cc1ccc(-c2ccccc2)cc1`, the Ki (Cytochrome P450 1A1 [3]) was 0.27 µM, the kinact (CYP1A1) was 0.001 s⁻¹ and the kinact (CYP1A2 [4]) was 0.00167 s⁻¹. It also gave a Ki (Cytochrome P450 1A2 [5]) of 0.87 µM.
In the case of `ClC=C(Cl)Cl` [TRICHLOROETHYLENE], the mechanism based inhibition (Cytochrome P450 2E1) is reported as “Cytochrome P450 mechanistic inhibitor: PMID 9851676”.
`C#Cc1cc2ccc3cccc4ccc(c1)c2c34` was tested, and the mechanism based inhibition (Cytochrome P450 1B1) was “Cytochrome P450 mechanistic inhibitor: PMID 9760279” and the mechanism based inhibition (Cytochrome P450 1A1 [6]) was “Cytochrome P450 mechanistic inhibitor: PMID 9760279”.
In the case of `c1ccc(C2(N3CCCCC3)CCCCC2)cc1` [PHENCYCLIDINE], the kinact (CYP2B6) is reported as 0.000167 s⁻¹, the Ki (Cytochrome P450 2B6) is reported as 10 µM and the mechanism based inhibition (Cytochrome P450 2B1) is reported as “Cytochrome P450 mechanistic inhibitor: PMID 9029055”.
For `CNCCC=C1c2ccccc2CCc2ccccc21` [NORTRIPTYLINE], the kinact (CYP2C8) was 0.0006 s⁻¹, the Ki (Cytochrome P450 2C8) was 49.9 µM and the mechanism based inhibition (Cytochrome P450 2C11) was “Cytochrome P450 mechanistic inhibitor: PMID 1435757; also recorded: Cytochrome P450 mechanistic inhibitor: PMID 14555335”.
In the case of `C[C@@H](c1cc2ccccc2s1)N(O)C(N)=O`, the Ki (Cytochrome P450 1A2 [1]) is reported as 98.2 µM and the kinact (CYP1A2 [2]) is reported as 0.000617 s⁻¹.
